Here are results for four compounds from patent US7452887B2, “Quinoline- and isoquinoline-based compounds exhibiting ATP-utilizing enzyme inhibitory activity, and compositions, and uses thereof” (Amphora Discovery Corporation, priority 2004, dated 2008).

What all share (experiment): HTS ATP-utilizing enzyme assay, off-chip mobility-shift (Caliper HTS 250)
Holding throughout (assay type): biochemical
What all share (conditions): test compound 10 μM, kinase listed = active (greater than six-sigma from the mean activity of inactive compounds)

One test has as its target AKT3 (Homo sapiens, UniProt Q9Y243). The procedure, abridged:
(§1)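 Single-point screen, 10 μM compound; kinase + peptide substrate, HEPES pH 7.5/Triton X-100/BSA; 2.5 hrs, 20–22° C.; EDTA stop. Readout: substrate vs phosphoproduct ratio by off-chip mobility shift. Hits called at six-sigma limits.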

In a further test the target is AKT1 (Homo sapiens, UniProt P31749). The procedure, abridged: as §1
For another test, the target named is T1, NEK2 (Homo sapiens, UniProt P51955).
T1 sequence (P51955 1-445): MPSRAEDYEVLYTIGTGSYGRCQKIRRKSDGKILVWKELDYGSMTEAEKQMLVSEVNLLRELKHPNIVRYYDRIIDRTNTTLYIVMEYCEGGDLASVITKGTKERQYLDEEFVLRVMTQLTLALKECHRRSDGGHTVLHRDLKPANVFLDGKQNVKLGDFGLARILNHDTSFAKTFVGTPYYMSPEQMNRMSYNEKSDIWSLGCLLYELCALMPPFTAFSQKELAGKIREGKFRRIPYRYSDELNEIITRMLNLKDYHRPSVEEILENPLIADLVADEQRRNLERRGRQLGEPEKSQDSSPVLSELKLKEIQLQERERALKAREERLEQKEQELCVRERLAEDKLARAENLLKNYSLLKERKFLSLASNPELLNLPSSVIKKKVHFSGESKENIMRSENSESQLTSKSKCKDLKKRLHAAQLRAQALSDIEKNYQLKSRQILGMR
The procedure, abridged:
as §1

The target of a further test is T2, PRAK (Homo sapiens, UniProt Q8IW41).
T2 sequence (Q8IW41 1-473): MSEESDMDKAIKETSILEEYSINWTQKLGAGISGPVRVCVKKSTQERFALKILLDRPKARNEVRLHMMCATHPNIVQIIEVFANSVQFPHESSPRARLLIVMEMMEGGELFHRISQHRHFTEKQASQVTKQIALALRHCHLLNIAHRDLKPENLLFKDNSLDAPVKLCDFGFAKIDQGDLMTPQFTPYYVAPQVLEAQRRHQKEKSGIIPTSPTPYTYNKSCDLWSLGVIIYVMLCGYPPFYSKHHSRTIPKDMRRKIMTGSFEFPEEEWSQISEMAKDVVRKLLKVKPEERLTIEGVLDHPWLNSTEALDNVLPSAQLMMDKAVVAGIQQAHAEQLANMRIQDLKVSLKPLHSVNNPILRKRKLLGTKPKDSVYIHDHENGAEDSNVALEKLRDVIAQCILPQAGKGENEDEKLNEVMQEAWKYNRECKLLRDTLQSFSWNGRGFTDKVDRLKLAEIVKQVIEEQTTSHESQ
The procedure, abridged:
as §1

A further test has as its target MAPKAPK2 (Homo sapiens, UniProt P49137). The procedure, abridged:
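Phosphorylation of a peptide substrate was quantified by Caliper mobility-shift separation of substrate and product after 2.5 h at 20-22 °C, with compounds tested at 10 μM. Inhibition was normalized to EDTA-quenched (100%) and DMSO (0%) controls; six-sigma thresholds flagged actives.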

Another test concerns the target ROCK2 (Homo sapiens, UniProt O75116). The procedure, abridged:
as §1

The next test deals with T3, DYRK2 (Homo sapiens, UniProt Q92630).
T3 sequence (Q92630 1-601): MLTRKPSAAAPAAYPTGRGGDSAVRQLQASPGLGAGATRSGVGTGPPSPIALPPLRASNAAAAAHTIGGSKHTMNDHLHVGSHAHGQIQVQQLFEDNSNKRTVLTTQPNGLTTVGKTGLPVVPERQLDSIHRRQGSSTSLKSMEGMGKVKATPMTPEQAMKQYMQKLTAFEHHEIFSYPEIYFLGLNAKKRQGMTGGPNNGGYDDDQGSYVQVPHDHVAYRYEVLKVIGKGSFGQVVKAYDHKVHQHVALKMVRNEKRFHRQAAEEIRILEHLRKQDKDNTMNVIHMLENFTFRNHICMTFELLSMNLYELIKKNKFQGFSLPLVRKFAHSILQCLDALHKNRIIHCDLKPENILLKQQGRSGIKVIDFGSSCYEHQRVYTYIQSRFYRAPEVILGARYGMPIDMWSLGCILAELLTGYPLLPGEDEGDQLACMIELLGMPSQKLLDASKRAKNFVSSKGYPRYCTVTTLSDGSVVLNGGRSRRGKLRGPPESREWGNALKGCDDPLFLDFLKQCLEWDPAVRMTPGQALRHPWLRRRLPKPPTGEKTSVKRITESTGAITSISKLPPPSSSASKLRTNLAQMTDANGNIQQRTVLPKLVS
The procedure, abridged:
as §1

Another test deals with MSK1 (Homo sapiens, UniProt O75582). The procedure, abridged:
as §1

The next test addresses C-TAK1 (Homo sapiens, UniProt P27448). The procedure, abridged: as §1
The target of another test is GSK3-α (Homo sapiens, UniProt P49840). The procedure, abridged: as §1
The next test has as its target GSK-3-β (Homo sapiens, UniProt P49841). The procedure, abridged:
as §1

Sequence of MAPKAPK2 (P49137 whole entry): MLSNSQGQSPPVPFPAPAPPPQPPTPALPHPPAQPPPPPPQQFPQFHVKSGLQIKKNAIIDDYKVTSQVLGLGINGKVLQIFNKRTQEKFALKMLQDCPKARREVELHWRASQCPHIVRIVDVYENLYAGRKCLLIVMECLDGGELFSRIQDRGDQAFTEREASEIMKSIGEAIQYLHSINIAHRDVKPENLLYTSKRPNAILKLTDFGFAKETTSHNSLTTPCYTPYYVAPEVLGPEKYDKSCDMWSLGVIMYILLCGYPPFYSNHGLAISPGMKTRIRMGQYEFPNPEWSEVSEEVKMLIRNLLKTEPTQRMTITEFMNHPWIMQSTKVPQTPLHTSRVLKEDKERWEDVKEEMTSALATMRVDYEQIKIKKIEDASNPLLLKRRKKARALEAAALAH
Sequence of C-TAK1 (P27448 whole entry): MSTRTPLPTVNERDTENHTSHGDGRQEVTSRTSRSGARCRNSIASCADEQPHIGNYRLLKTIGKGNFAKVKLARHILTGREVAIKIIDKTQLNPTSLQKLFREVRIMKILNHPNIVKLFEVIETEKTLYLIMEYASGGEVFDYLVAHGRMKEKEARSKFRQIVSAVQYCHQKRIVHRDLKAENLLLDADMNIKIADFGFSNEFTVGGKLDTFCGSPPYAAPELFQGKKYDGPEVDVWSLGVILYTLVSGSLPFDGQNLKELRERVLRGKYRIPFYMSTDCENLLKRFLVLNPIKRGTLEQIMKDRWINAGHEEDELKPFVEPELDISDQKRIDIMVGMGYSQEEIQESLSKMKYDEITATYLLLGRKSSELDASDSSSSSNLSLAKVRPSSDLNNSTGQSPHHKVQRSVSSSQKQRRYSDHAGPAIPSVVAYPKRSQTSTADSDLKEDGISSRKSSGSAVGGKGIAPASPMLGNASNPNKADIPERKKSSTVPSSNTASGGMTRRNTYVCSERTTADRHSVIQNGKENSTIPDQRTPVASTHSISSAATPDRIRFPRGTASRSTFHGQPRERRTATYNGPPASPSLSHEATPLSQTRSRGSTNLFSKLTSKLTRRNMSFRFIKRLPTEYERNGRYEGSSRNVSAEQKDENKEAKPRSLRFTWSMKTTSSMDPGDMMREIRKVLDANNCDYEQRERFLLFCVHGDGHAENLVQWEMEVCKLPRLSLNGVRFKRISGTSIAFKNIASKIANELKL
Sequence of GSK3-α (P49840 whole entry): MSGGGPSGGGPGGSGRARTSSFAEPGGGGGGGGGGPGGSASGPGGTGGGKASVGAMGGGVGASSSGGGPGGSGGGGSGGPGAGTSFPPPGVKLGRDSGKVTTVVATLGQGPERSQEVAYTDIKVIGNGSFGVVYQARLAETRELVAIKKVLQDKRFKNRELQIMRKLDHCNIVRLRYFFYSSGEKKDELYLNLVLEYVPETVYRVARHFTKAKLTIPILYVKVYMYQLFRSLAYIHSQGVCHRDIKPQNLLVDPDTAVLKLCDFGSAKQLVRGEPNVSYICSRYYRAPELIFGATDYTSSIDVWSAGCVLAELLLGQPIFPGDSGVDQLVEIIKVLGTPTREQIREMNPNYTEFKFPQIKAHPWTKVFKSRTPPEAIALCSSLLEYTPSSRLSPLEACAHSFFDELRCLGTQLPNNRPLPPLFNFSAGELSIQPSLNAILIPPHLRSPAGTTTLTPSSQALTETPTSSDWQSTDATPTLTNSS
Sequence of ROCK2 (O75116 whole entry): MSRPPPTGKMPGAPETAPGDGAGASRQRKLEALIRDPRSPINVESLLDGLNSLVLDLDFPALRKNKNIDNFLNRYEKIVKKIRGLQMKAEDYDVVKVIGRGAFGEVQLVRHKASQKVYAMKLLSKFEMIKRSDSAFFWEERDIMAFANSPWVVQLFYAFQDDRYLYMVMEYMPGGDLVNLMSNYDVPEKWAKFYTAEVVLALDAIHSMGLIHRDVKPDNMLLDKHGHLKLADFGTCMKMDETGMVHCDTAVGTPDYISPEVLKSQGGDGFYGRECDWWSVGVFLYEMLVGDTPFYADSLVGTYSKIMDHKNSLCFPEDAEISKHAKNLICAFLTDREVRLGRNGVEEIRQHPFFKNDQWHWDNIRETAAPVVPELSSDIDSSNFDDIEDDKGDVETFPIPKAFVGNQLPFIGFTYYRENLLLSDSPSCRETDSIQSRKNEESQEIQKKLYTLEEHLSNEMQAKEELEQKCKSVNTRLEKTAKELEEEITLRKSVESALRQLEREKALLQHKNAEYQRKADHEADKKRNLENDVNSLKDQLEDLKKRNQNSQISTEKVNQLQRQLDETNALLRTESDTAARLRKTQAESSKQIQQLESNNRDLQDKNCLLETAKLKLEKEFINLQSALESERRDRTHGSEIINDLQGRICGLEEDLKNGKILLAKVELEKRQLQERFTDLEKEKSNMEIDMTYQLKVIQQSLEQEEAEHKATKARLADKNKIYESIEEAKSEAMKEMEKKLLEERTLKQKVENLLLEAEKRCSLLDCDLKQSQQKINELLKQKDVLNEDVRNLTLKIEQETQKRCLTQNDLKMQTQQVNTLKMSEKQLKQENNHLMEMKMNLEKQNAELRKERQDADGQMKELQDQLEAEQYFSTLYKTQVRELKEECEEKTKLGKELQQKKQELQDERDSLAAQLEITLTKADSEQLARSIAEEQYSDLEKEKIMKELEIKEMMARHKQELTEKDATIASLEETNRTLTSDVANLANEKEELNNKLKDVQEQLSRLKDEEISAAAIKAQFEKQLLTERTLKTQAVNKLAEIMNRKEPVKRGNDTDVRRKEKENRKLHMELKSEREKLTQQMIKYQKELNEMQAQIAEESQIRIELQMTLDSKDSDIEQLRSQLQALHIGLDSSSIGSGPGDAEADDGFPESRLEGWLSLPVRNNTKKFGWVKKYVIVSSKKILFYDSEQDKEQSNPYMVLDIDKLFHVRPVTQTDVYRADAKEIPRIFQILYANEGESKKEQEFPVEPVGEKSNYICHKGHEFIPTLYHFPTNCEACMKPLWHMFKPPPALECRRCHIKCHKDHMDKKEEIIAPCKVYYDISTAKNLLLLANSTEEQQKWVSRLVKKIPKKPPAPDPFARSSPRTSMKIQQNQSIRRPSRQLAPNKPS
Sequence of GSK-3-β (P49841 whole entry): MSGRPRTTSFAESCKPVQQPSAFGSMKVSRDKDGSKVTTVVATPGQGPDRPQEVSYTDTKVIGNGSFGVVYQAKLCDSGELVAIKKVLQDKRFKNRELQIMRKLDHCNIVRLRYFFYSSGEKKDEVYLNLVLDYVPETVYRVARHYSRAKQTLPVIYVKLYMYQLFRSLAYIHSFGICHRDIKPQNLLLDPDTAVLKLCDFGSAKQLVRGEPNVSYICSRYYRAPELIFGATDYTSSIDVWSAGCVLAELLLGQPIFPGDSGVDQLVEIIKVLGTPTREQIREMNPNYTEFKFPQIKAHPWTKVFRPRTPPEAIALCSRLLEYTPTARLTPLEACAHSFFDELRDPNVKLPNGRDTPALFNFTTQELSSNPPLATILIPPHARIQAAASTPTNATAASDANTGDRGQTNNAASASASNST
Sequence of AKT1 (P31749 whole entry): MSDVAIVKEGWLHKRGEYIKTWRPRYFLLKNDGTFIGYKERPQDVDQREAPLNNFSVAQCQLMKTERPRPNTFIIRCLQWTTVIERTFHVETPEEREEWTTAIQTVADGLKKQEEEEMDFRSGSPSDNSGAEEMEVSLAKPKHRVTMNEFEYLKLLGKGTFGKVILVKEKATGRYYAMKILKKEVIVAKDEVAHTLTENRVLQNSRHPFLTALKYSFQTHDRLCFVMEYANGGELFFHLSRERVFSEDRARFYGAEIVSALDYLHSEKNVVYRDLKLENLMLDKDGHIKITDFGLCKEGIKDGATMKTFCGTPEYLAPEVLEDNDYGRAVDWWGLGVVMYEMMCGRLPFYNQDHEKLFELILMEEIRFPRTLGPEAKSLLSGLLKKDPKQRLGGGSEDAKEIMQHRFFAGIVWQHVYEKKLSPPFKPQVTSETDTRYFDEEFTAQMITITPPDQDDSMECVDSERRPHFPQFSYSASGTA
Sequence of AKT3 (Q9Y243 whole entry): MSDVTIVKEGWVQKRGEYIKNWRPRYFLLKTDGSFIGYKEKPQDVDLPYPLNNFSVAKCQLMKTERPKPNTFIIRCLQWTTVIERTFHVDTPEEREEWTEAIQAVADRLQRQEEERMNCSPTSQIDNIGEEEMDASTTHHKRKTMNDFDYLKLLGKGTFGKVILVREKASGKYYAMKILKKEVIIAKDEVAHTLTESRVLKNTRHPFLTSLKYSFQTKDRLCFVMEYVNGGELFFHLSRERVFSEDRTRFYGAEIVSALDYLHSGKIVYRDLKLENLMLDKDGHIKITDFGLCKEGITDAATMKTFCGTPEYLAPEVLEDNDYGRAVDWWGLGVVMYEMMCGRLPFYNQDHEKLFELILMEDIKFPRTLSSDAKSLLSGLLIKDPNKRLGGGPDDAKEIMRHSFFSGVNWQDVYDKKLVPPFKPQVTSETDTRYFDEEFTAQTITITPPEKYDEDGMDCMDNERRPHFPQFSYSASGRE

Regarding `CN1CCN(c2ccc(Nc3ccnc4ccc(-c5cccc(C#N)c5)cc34)cc2)CC1` [3-(4-(4-(4-methylpiperazin-1-yl)phenylamino)quinolin-6-yl)benzonitrile], the Activity result on AKT3 was “AKT3”; at AKT1, “AKT1”; at NEK2 it was “NEK2”; at PRAK, “PRAK”; at MAPKAPK2, “MAPKAPK2”.

For `CN1CCN(c2ccc(Nc3ccnc4ccc(-c5ccc(C(N)=O)cc5)cc34)cc2)CC1` [4-(4-(4-(4-methylpiperazin-1-yl)phenylamino)quinolin-6-yl)benzamide], the Activity entry was “ROCK2” at ROCK2; “NEK2” at NEK2; “PRAK” on PRAK; “DYRK2” at DYRK2; “MAPKAPK2” on MAPKAPK2.

For the compound `CN1CCN(c2ccc(Nc3ccnc4ccc(-c5ccc(F)c(Cl)c5)cc34)cc2)CC1` [6-(3-chloro-4-fluorophenyl)-N-(4-(4-methylpiperazin-1-yl)phenyl)quinolin-4-amine], the Activity result on NEK2 is “NEK2”; on PRAK, “PRAK”; on MSK1, “MSK1”; at C-TAK1, “C-TAK1”; at MAPKAPK2, “MAPKAPK2”.

Turning to `CN1CCN(c2ccc(Nc3ccnc4ccc(-c5ccoc5)cc34)cc2)CC1` [6-(furan-3-yl)-N-(4-(4-methylpiperazin-1-yl)phenyl)quinolin-4-amine], the Activity entry on GSK3-α is listed as “GSK3-α”; at GSK-3-β, “GSK-3-β”; at DYRK2 it was “DYRK2”; on MAPKAPK2 it was “MAPKAPK2”.
